Values of other authors, collected in article PMC8313041 (Heterocyclic communications, 2015).

Assays:
[1] = system: human leukemic T-cell lines

**Q.** Which “in vitro potency against HIV-1 compared with lodenosine” value (HIV-1) does the source give for `Nc1ncnc2c1ncn2[C@@H]1O[C@H](CO)[C@@H](F)[C@@H]1F` [Compound 2, 9-(2′,3′-dideoxy-2′,3′-difluoro-β-D-arabinofuranosyl)adenine] here?
**A.** The value was “more potent in vitro against HIV-1 than lodenosine 1”.

**Q.** For `Nc1nc2c(ncn2[C@@H]2O[C@H](CO)[C@@H](O)[C@@H]2F)c(=O)[nH]1` [Compound 3, 9-(2′-deoxy-2′-fluoro-β-D-arabinofuranosyl)guanine], which “activity against human leukemic T-cell lines” value [1] is on record?
**A.** The value was “displays activity against human leukemic T-cell lines”.

**Q.** For `Nc1ncnc2c1ncn2[C@@H]1O[C@H](CO)C[C@@H]1F` [lodenosine, 2′-β-fluoro-2′,3′-dideoxyadenosine], which “in vitro activity against HIV-1” value (HIV-1) is on record?
**A.** The value was “displays in vitro activity against HIV-1”.
